Test results published in paper PMC9848270, “Synthesis and biological assessment of indole derivatives containing penta-heterocycles scaffold as novel anticancer agents towards A549 and K562 cells” (Journal of Enzyme Inhibition and Medicinal Chemistry, 2023).

Columns and labels:
[1] = system: K562 cells; assay: Annexin V-FITC/PI apoptosis flow cytometry, K562; type: cell-based, human; parameters: total numbers of apoptotic cells, K562: dose or concentration left out as unconfirmed; conditions: 48 h
Protocol: (§1) Annexin-V/FITC assay, after the adherent cells grew stably in the 6-well plate, each group was reacted with different concentrations of compound solutions for 48 h. Then, cells were collected by trypsinization without EDTA, rinsed twice with PBS, followed by the Annexin V-FITC/PI apoptosis detection kit (Solarbio, Bei Jing, China) according to the kit instructions, flow cytometry by BD FACSCalibur instrument (American BD Company Shanghai Co., Ltd.).

[2] = system: human liver cancer cells (HepG2); assay: MTT antiproliferative assay, HepG2; type: cell-based; conditions: for inhibition at 10 µM: read-out: Inhibition rate, HepG2; for IC50: MTT assay, 48 h, read-out: In vitro cytotoxicity IC50, HepG2
Protocol: (§2) A549, PC-3, HepG2 and K562 cells were purchased from the Kunming cell bank of the Chinese academy of sciences. All cell lines were cultured in DMEM or RPMI 1640 complete medium. Logarithmic growth cells were cultured in 96-well plates at a concentration of 10^4 cells per well and pre-cultured for 24 h before adding test compounds. The MTT test with 5-Fluorouracil and Gefitinib as reference compounds were used to evaluate antiproliferative activity of target compounds in four human cancer line cells. For the estimation of the inhibition concentration (IC50), the Graph Pad Prism (GraphPad Software, San Diego, CA) was used.

[3] = system: human chronic myeloid leukaemia cells (K562); assay: MTT antiproliferative assay, K562; type: cell-based; conditions: for inhibition at 10 µM: K562, 10 μM, read-out: Inhibition rate, K562; for IC50: K562, 48 h, MTT assay, 48 h, read-out: In vitro cytotoxicity IC50, K562
Protocol: as §2

[4] = system: human non-small cell lung cancer cells (A549); assay: MTT antiproliferative assay, A549; type: cell-based; conditions: for inhibition at 10 µM: A549, 10 μM, read-out: Inhibition rate, A549; for IC50: A549, 48 h, MTT assay, 48 h, read-out: In vitro cytotoxicity IC50, A549
Protocol: as §2

[5] = system: A549 cells; assay: Cell cycle analysis (PI staining, flow cytometry), A549; type: cell-based, human; conditions: 4 µM, 48 h
Protocol: (§3) A549 or K562 cells were separately seeded at 4.0 × 10^5cells/well in six-well plates and incubated for 24 h until adherent. […] After treatment, the cells were collected, and washed twice with pre-cooled PBS and then fixed with ice-cold ethanol (70%), subsequently kept 4 °C for overnight. After washing twice with PBS, cells were incubated at 37 °C with 100 µ L RNase A for 30 min. After this, cells were incubated with 400 µL PI for 30 min at 4 °C. Finally, the cell cycle distribution of compound 10 b was analysed via the BD FACSCalibur flow cytometry (American BD Corporation Shanghai Co. Ltd.)

[6] = system: A549 cells; assay: Annexin V-FITC/PI apoptosis flow cytometry, A549; type: cell-based, human; conditions: 4 µM, 48 h
Protocol: as §1

[7] = system: human prostate cancer cells (PC-3); assay: MTT antiproliferative assay, PC-3; type: cell-based; conditions: Homo sapiens; for IC50: 48 h, MTT assay, read-out: In vitro cytotoxicity IC50, PC-3; for inhibition at 10 µM: read-out: Inhibition rate, PC-3
Protocol: as §2

[8] = system: K562 cells; assay: Cell cycle analysis (PI staining, flow cytometry), K562; type: cell-based, human; conditions: 4 µM, 48 h
Protocol: as §3

[9] = MTT cytotoxicity, normal cell line HEK293; type: cell-based, human; conditions: human, HEK293 cells (normal cell line); MTT assay, 48 h; normal cell line; CC50; read-out: In vitro cytotoxicity IC50, HEK293
[10] = system: normal cell line (HEK293); assay: MTT cytotoxicity, normal cell line HEK293; type: cell-based, human; conditions: Homo sapiens, HEK293; 10 μM; read-out: Inhibition rate, HEK293
[11] = system: A549, PC-3, HepG2 and K562 cells; assay: MTT antiproliferative assay, four cancer cell lines taken together; type: cell-based, human
Protocol: as §2

melting point [°C] | SMILES | total numbers of apoptotic cells, K562 [1] [%] | inhibition at 10 µM [2] [%] | IC50 [2] [µM] | inhibition at 10 µM [3] [%] | IC50 [3] [µM] | inhibition at 10 µM [4] [%] | IC50 [4] [µM] | DNA contents of the live population, G0/G1 phase, A549 [5] [%] | DNA contents of the live population, G2/M phase, A549 [5] [%] | DNA contents of the live population, S phase, A549 [5] [%] | total numbers of apoptotic cells, A549 [6] [%] | IC50 [7] [µM] | inhibition at 10 µM [7] [%] | DNA contents of the live population, G0/G1 phase, K562 [8] [%] | DNA contents of the live population, G2/M phase, K562 [8] [%] | DNA contents of the live population, S phase, K562 [8] [%] | IC50 at 48 h [9] [µM] | inhibition at 10 µM [10] [%] | antiproliferative activity in words [11]
230 to 232 | Nn1c(SCC(=O)Nc2cc(-c3c[nH]c4ccccc34)n[nH]2)nnc1-c1c[nH]c2ccccc12 [Compound 11n, N-(3-(1H-indol-3-yl)-1H-pyrazol-5-yl)-2-((4-amino-5-(1H-indol-3-yl)-4H-1,2,4-triazol-3-yl)thio)acetamide] | – | 80.5 ± 3.62 | 2.76 ± 1.74 | 97.1 ± 0.377 | 4.38 ± 0.45 | 31 ± 0.996 | 31.3 ± 3.29 | – | – | – | – | 10.4 ± 0.46 | 56.6 ± 12.9 | – | – | – | 5.02 ± 1.29 | 44.7 ± 4.73 | –
209 to 212 | Nn1c(SCC(=O)Nc2cc(-c3c[nH]c4ccccc34)n[nH]2)nnc1-c1ccc(F)cc1 [Compound 11p, N-(3-(1H-indol-3-yl)-1H-pyrazol-5-yl)-2-((4-amino-5–(4-fluorophenyl)-4H-1,2,4-triazol-3-yl)thio)acetamide] | – | 22.8 ± 2.22 | 19.3 ± 6.15 | 11.7 ± 0.639 | 33.2 ± 4.95 | 23.9 ± 3.03 | 93.9 ± 7.47 | – | – | – | – | 33.3 ± 5.94 | 17.1 ± 1.22 | – | – | – | 28.9 ± 0.52 | 5.33 ± 14.9 | –
263 to 266 | Nn1c(SCC(=O)Nc2cc(-c3c[nH]c4ccccc34)n[nH]2)nnc1-c1ccccc1O [Compound 11q, N-(3-(1H-indol-3-yl)-1H-pyrazol-5-yl)-2-((4-amino-5–(2-hydroxyphenyl)-4H-1,2,4-triazol-3-yl)thio)acetamide] | – | 84.7 ± 11.4 | 8.23 ± 7.58 | 99.2 ± 1.2 | 2.34 ± 0.34 | 89.4 ± 2.21 | 4.14 ± 1.71 | – | – | – | – | 2.89 ± 0.15 | 86.3 ± 0.332 | – | – | – | 2.66 ± 1.29 | 99.3 ± 0.02 | –
241 to 243 | Nn1c(SCC(=O)Nc2cc(-c3c[nH]c4ccccc34)n[nH]2)nnc1-c1ccc[nH]1 [Compound 11r, N-(3-(1H-indol-3–yl)-1H-pyrazol-5-yl)-2-((4-amino-5-(1H-pyrrol-2-yl)-4H-1,2,4-triazol-3-yl)thio)acetamide] | – | 96.5 ± 1.22 | 1.75 ± 0.07 | 95 ± 2.52 | 1.84 ± 0.66 | 94.2 ± 1.81 | 2.72 ± 0.26 | – | – | – | – | 2.73 ± 1.05 | 79.4 ± 9.21 | – | – | – | 1.53 ± 0.93 | 72.3 ± 5.76 | –

Continued, molecule first:

SMILES | melting point [°C] | total numbers of apoptotic cells, K562 [1] [%] | inhibition at 10 µM [2] [%] | IC50 [2] [µM] | inhibition at 10 µM [3] [%] | IC50 [3] [µM] | inhibition at 10 µM [4] [%] | IC50 [4] [µM] | DNA contents of the live population, G0/G1 phase, A549 [5] [%] | DNA contents of the live population, G2/M phase, A549 [5] [%] | DNA contents of the live population, S phase, A549 [5] [%] | total numbers of apoptotic cells, A549 [6] [%] | IC50 [7] [µM] | inhibition at 10 µM [7] [%] | DNA contents of the live population, G0/G1 phase, K562 [8] [%] | DNA contents of the live population, G2/M phase, K562 [8] [%] | DNA contents of the live population, S phase, K562 [8] [%] | IC50 at 48 h [9] [µM] | inhibition at 10 µM [10] [%] | antiproliferative activity in words [11]
O=c1[nH]cc(F)c(=O)[nH]1 [5-Fluorouracil, reference compound] | – | 13.4 | 26.4 ± 0.513 | 15 ± 3.87 | 39.9 ± 6.44 | 12.3 ± 2.5 | 54.3 ± 1.07 | 3.46 ± 0.45 | 46.87 | 13.13 | 34.63 | 28.3 | 10.9 ± 3.4 | 37 ± 6.18 | 30.93 | 16.07 | 48.27 | 3.62 ± 0.25 | 72.1 ± 3.71 | –
O=C(CSc1nnc(-c2ccccc2Br)s1)Nc1cc(-c2c[nH]c3ccccc23)n[nH]1 [Compound 10c, N-(3-(1H-indol-3-yl)-1H-pyrazol-5-yl)-2-((5–(2-bromophenyl)-1,3,4-thiadiazol-2-yl)thio)acetamide] | – | – | 11.9 ± 2.21 | 61.3 ± 17 | 27.1 ± 1.87 | 33.7 ± 3.54 | 24.3 ± 2.77 | 18.8 ± 2.92 | – | – | – | – | 31.9 ± 18 | 30.3 ± 12.6 | – | – | – | 63.7 ± 6.51 | 33 ± 1.46 | quite weak antiproliferative activity
O=C(CSc1nnc(-c2ccccc2F)s1)Nc1cc(-c2c[nH]c3ccccc23)n[nH]1 [Compound 10g, N-(3-(1H-indol-3-yl)-1H-pyrazol-5-yl)-2-((5-(2-fluorophenyl)-1,3,4-thiadiazol-2-yl)thio)acetamide] | – | – | 56.9 ± 9.69 | 11.8 ± 2.02 | 97.4 ± 0.838 | 3.32 ± 0.09 | 55.2 ± 3.17 | 14.2 ± 1.61 | – | – | – | – | 2.98 ± 0.28 | 96.4 ± 2.21 | – | – | – | 10.1 ± 2.2 | 68.1 ± 4.49 | quite weak antiproliferative activity
Nn1c(SCC(=O)Nc2cc(-c3c[nH]c4ccccc34)n[nH]2)nnc1-c1ccccn1 [Compound 11i, N-(3-(1H-indol-3-yl)-1H-pyrazol-5-yl)-2-((4-amino-5-(pyridine-2-yl)-4H-1,2,4-triazol-3-yl)thio)acetamide] | 208 to 210 | – | 95.3 ± 3.04 | 2.5 ± 1.44 | 99.5 ± 0.155 | 1.26 ± 0.24 | 94.8 ± 1.91 | 2.97 ± 0.83 | – | – | – | – | 2.77 ± 0.91 | 83.6 ± 5.66 | – | – | – | 1.45 ± 0.22 | 67.1 ± 2.18 | –
Nn1c(SCC(=O)Nc2cc(-c3c[nH]c4ccccc34)n[nH]2)nnc1-c1ccccc1Cl [Compound 11j, N-(3-(1H-indol-3-yl)-1H-pyrazol-5-yl)-2-((4-amino-5–(2-chlorophenyl)-4H-1,2,4-triazol-3-yl)thio)acetamide] | 136 to 138 | – | 14.4 ± 0.686 | 50.6 ± 4.69 | 14.3 ± 0.525 | 42.4 ± 3.6 | 13.7 ± 1.49 | 56.8 ± 5.27 | – | – | – | – | 34.4 ± 2.57 | 17.8 ± 2.85 | – | – | – | 63 ± 0.87 | 10.9 ± 7.59 | –
Nn1c(SCC(=O)Nc2cc(-c3c[nH]c4ccccc34)n[nH]2)nnc1-c1ccccc1 [Compound 11k, N-(3-(1H-indol-3-yl)-1H-pyrazol-5-yl)-2-((4-amino-5-phenyl-4H-1,2,4-triazol-3-yl)thio)acetamide] | > 300 | – | 11.1 ± 0.757 | 73.1 ± 8.07 | 19.2 ± 3.55 | 39.7 ± 7.96 | 23.2 ± 0.539 | 23.9 ± 3.08 | – | – | – | – | 25.4 ± 2.77 | 23.1 ± 3.99 | – | – | – | 23.6 ± 4.14 | 0.497 ± 5.03 | –
Nc1ccc(-c2nnc(SCC(=O)Nc3cc(-c4c[nH]c5ccccc45)n[nH]3)n2N)cc1 [Compound 11l, N-(3-(1H-indol-3-yl)-1H-pyrazol-5-yl)-2-((4-amino-5–(4-aminophenyl)-4H-1,2,4-triazol-3-yl)thio)acetamide] | 213 to 215 | – | 93.5 ± 1.56 | 1.37 ± 0.57 | 99 ± 0.2 | 0.363 ± 0.1 | 96.7 ± 0.847 | 1.73 ± 0.3 | – | – | – | – | 2.88 ± 0.1 | 71.9 ± 4.55 | – | – | – | 1.38 ± 1.17 | 79.6 ± 2.23 | –
Nn1c(SCC(=O)Nc2cc(-c3c[nH]c4ccccc34)n[nH]2)nnc1-c1ccc(Br)cc1 [Compound 11m, N-(3-(1H-indol-3-yl)-1H-pyrazol-5-yl)-2-((4-amino-5–(4-bromophenyl)-4H-1,2,4-triazol-3-yl)thio)acetamide] | 270 to 272 | – | 60.9 ± 7.02 | 10.7 ± 5.21 | 98.5 ± 0.434 | 2.57 ± 0.43 | 71.7 ± 5.61 | 5.81 ± 0.69 | – | – | – | – | 21.3 ± 2.75 | 32.8 ± 6.5 | – | – | – | 5.81 ± 0.88 | 54.2 ± 5.97 | –
